From PMC9607081 (Membranes, 2022)

Experiments:
[1] = system: human GlyR α1 subunit P230 (M1) substituted with 3MeP; conditions: Table 2, P230 3MeP, n = 4
Experimental: (§1) The cDNA for the human GlyR α1 subunit was in pGEMHE (ThermoFischer Scientific, Bishops Stortford, UK). Site-directed mutagenesis was performed using QuikChange (Agilent Technologies, Milton Keynes, UK) to generate the appropriate codon. For non-canonical amino acid mutants and conventional mutants generated by nonsense suppression, the site of interest was mutated to the TAG stop codon. Receptor mRNA was then prepared by in vitro runoff transcription using the Ambion T7 mMessage mMachine kit (ThermoFischer Scientific, Bishops Stortford, UK). Noncanonical amino acids were ligated to tRNA as previously described.
(§2) Stage V-VI oocytes of Xenopus laevis were harvested and injected with RNAs as described previously. For nonsense suppression experiments, each cell was injected with 50–100 ng each of receptor mRNA and tRNA charged with the appropriate Pro analogue ~48 h before recording. For wild type and conventional mutants, each cell received a single injection of 10–25 ng of receptor mRNA ~24 h before recording. Injection volumes were 50–100 nL per cell.
(§3) As a negative control for suppression experiments at each site, unligated tRNA was co-injected with mRNA in the same manner as charged tRNA. […] Pro recovery (injecting tRNA charged with Pro to regenerate a wild type channel via nonsense suppression) was used alongside Pro analogues as a positive control.
(§4) Two-electrode voltage clamping of Xenopus oocytes was performed using standard electrophysiological procedures as previously, using an OpusXpress system (Axon Instruments, Inc., Union City, CA, USA). All experiments were performed at 22–25 °C. […] The holding potential was −60 mV unless otherwise specified. […] Data were analysed using Prism (GraphPad Software Inc., San Diego, CA, USA), fitting concentration-response data to the four-parameter logistic equation. Statistical analysis was performed using ANOVA with a Dunnett’s multiple comparisons post test.

[2] = system: human GlyR α1 subunit P96 (loopA) substituted with CFP
Experimental: as §1, §2, §3, §4

[3] = system: human GlyR α1 subunit P96 (loopA) substituted with TFP
Experimental: as §1, §2, §3, §4

[4] = system: human GlyR α1 subunit P30 (α1β1L) substituted with Vah
Experimental: as §1, §2, §3, §4

[5] = system: human GlyR α1 subunit P96 (loopA) substituted with 2MeP; conditions: Table 2, P96 2MeP, n = 4
Experimental: as §1, §2, §3, §4

[6] = system: human GlyR α1 subunit P230 (M1) substituted with CFP
Experimental: as §1, §2, §3, §4

[7] = target: human GlyR α1 subunit P230 (M1) substituted with Pro (Homo sapiens, UniProt P23415); conditions: Table 2, n = 4
Chain of human GlyR α1 subunit P230 (M1) substituted with Pro (P23415 29-457): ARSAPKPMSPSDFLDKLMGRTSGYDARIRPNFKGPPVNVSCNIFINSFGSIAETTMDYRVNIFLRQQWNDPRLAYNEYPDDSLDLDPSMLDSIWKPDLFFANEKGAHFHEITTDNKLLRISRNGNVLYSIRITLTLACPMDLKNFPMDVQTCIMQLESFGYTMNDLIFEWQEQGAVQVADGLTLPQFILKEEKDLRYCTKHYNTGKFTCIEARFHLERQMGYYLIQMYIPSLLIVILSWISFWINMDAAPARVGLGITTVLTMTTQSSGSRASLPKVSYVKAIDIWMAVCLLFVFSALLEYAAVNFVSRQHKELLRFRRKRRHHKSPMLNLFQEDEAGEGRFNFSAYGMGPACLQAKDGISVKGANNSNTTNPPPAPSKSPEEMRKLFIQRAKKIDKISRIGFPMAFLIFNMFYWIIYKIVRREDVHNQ
Experimental: as §1, §2, §3, §4

[8] = system: human GlyR α1 subunit P30 (α1β1L) substituted with Pip
Experimental: as §1, §2, §3, §4

[9] = system: human GlyR α1 subunit P30 (α1β1L) substituted with 2MeP; conditions: Table 2, P30 2MeP, n = 5
Experimental: as §1, §2, §3, §4

[10] = system: human GlyR α1 subunit P230 (M1) substituted with 2MeP; conditions: Table 2, P230 2MeP, n = 4
Experimental: as §1, §2, §3, §4

[11] = Table 2, nonsense suppression, n = 4

In the case of `NCC(=O)O` [Gly, glycine], the nH [1] is reported as 1.1 ± 0.4, the EC50 ([1]; nonsense suppression) is reported as 34 µM and the pEC50 ([1]; nonsense suppression) is reported as 4.471 ± 0.08 M. It also gave a nH ([2]; Table 2, n = 4) of 3.2 ± 0.7, an EC50 [2, 11] of 145 µM and a pEC50 [2, 11] of 3.840 ± 0.05 M. For the same compound, the nH ([3]; Table 2, n = 4) was 2.9 ± 0.7, the EC50 [3, 11] was 127 µM and the pEC50 [3, 11] was 3.898 ± 0.03 M. It also gave a nH ([4]; Table 2, n = 4) of 3.8 ± 0.5, an EC50 [4, 11] of 21 µM and a pEC50 [4, 11] of 4.684 ± 0.03 M. It also gave a nH [5] of 2.8 ± 0.5, an EC50 ([5]; nonsense suppression) of 254 µM and a pEC50 ([5]; nonsense suppression) of 3.596 ± 0.03 M. The nH ([6]; Table 2, n = 4) was 1.4 ± 0.2, the EC50 [6, 11] was 74 µM and the pEC50 [6, 11] was 4.131 ± 0.04 M. It also gave a nH [7] of 2.5 ± 0.9, a nH ([8]; Table 2, n = 4) of 2.7 ± 0.7 and an EC50 [8, 11] of 36 µM. For the same compound, the pEC50 [8, 11] was 4.439 ± 0.03 M, the nH [9] was 1.6 ± 0.3 and the EC50 ([9]; nonsense suppression) was 368 µM. The pEC50 ([9]; nonsense suppression) was 3.434 ± 0.06 M, the nH [10] was 1.6 ± 0.5 and the EC50 ([10]; nonsense suppression) was 177 µM. It also gave a pEC50 ([10]; nonsense suppression) of 3.751 ± 0.08 M.
